From patent publication US8568690B2, “MRI contrast agents and high-throughput screening by MRI” (The Board of Trustees of the University of Illinois, priority 2007, dated 2013)

Columns and labels:
[1] = tested on: adenosine aptamer (linker-Adap) CLIO sensor; test: Adenosine aptamer CLIO sensor, T2 weighted MRI and T2 relaxation time; type: binding; details: for change in contrast of sensor (selectivity control): sensor incubated with 5 mM nucleoside
Method: SPIO nanoparticles were chosen as the contrast agents to functionalize by aptamers since it is efficient at dephasing the spins of neighboring water protons, leading to change in T2 [36, 37]. It has also been shown that oligonucleotide functionalized cross-linked dextran coated superparamagnetic iron oxide nanoparticles (CLIOs) form clusters when linked with a complementary sequence. The adenosine sensor comprised CLIO aggregates that are prepared using three components: CLIO functionalized with 3′- or 5′-thiol modified DNA, called 3′Adap-CLIO and 5′Adap-CLIO respectively and a linker DNA, called linker-Adap that can hybridize to both the 3′- and 5′Adap-CLIOs, leading to the formation of clusters.
One segment of the linker is the sequence for the adenosine aptamer. Seven bases of this aptamer are involved in the hybridization with the 5′Adap-CLIO. In the presence of adenosine the aptamer undergoes structure switching in order to form the adenosine binding pocket, which results in disruption of base pairing interactions with 5′Adap-CLIO. The five remaining base pairs between the linker-Adap and the 5′Adap-CLIO are not enough to hold them together at room temperature leading to disassembly of clusters. The dispersed nanoparticles result in a higher T2 as compared to the clusters; and thus the adenosine induced disassembly can be monitored as an increase in T2 values and enhancement in brightness of T2 weighted MRI images.
The prepared sensor was then aliquoted into the wells of a microplate, with progressively increasing amount of adenosine and a T2 weighted MRI image was obtained. An increase in adenosine concentration led to an increase in the brightness of the image, as illustrated in line a) of FIG. 6. This increase was attributed to the increase in T2 due to disassembly of CLIO clusters into smaller particles. It is worth noting that even at 10 μM adenosine a detectable change in contrast was observed.
250 μl of sample was aliquoted into the wells of a microplate and varying amounts of adenosine was added in each well. The samples with serum were prepared by adding 10% human serum. Volume change was compensated by addition of distilled water.

[2] = biological target: Adenosine Deaminase (ADA) (Bos taurus, UniProt P56658); details: adenosine and test molecule, tris-acetate buffer pH 8.0 (FIG. 19) and human serum (FIG. 20)
Adenosine Deaminase (ADA), sequence (P56658 whole entry): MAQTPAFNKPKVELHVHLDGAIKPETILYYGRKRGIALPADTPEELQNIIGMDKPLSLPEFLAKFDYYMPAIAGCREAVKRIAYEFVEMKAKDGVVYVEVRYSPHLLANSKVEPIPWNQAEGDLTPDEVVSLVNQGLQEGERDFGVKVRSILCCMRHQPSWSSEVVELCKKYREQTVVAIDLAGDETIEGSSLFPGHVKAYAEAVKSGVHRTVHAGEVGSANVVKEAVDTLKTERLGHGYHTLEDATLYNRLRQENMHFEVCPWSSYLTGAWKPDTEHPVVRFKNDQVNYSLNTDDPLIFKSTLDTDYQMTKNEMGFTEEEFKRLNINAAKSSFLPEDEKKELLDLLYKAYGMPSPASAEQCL
Method: The screening of ADA inhibitors can be monitored with an aptamer system whereby an MRI signal is generated when a molecule inhibits the ADA.
For example, an aggregate of paramagnetic particles can be used to monitor the screening. To this end, a mixture including paramagnetic particles that are attached to oligonucleotides is prepared. A bridge including an aptamer that binds adenosine is also present in the mixture. If the tested molecule is not effective in inhibiting ADA, adenosine is transformed into inosine, and the complementary portions of the oligonucleotides are hybridized to the bridge. Aggregation of the particles into an aggregate follows, and an increase in MRI contrast is not observed.
The resulting dehybridization leads to deaggregation of the aggregate, generating an MRI signal (FIG. 18).
The screening was monitored by incubating with aggregates that included CLIO nanoparticles attached to polynucleotides and a bridge comprising an ADA-binding aptamer. The screening of FIG. 19 was carried out in the presence of tris-acetate buffer at pH 8.0. […]
T2-weighted MRI images were obtained on a 4.7 T NMR instrument using a spin echo pulse sequence with variable echo time (TE=20−100 ms) and a repetition time (TR) of 2000 ms. Relaxation times were measured on the same instrument with the Carr-Purcell-Meiboom-Gill (CPMG) pulse sequence.

Nc1ncnc2c1ncn2[C@@H]1O[C@H](CO)[C@@H](O)[C@H]1O [adenosine, Adenosine]
MRI contrast of sensor in serum ([1]; 10% human serum, adenosine concentration gradient): the contrast within the concentration gradient increases | adenosine concentration at which a detectable change in contrast was observed ([1]; T2 weighted MRI image, sensor ~20 μg Fe ml-1): 10 µM | T2 relaxation time of sensor ([1]; at 2.5 Mm adenosine, 36 ms at 0 adenosine): 63 ms

Nc1ccn([C@@H]2O[C@H](CO)[C@@H](O)[C@H]2O)c(=O)n1 [control molecule 37, Cytidine]
change in contrast of sensor (selectivity control) [1]: a significant change in contrast was not observed

Nc1nc2c(ncn2[C@@H]2O[C@H](CO)[C@@H](O)[C@H]2O)c(=O)[nH]1 [guanosine]
change in contrast of sensor (selectivity control) [1]: a significant change in contrast was not observed

O=c1ccn([C@@H]2O[C@H](CO)[C@@H](O)[C@H]2O)c(=O)[nH]1 [uridine]
change in contrast of sensor (selectivity control) [1]: a significant change in contrast was not observed

erythro-9-(2-hydroxy-3-nonyl)adenine hydrochloride [EHNA]
ADA inhibition read as deaggregation of aggregates / increase in MRI brightness [2]: inhibited the conversion of adenosine into inosine
